Measured values as given in PMC5487684, “Safety, Pharmacokinetics, and Antiviral Activity of a Novel HIV Antiviral, ABX464, in Treatment-Naive HIV-Infected Subjects in a Phase 2 Randomized, Controlled Study” (Antimicrobial Agents and Chemotherapy, 2017).

Test system: HIV
Experiment: HIV viral load (HIV-1 RNA copies per milliliter) in treatment-naive HIV-infected patients
Type: in vivo
Procedure: Safety assessments and laboratory tests were carried out according to the schedules described in Table S4 for groups dosed every day, every 3 days, and 3 times a day. Follow-up visits were scheduled for 7 days after the last dose and subsequently once every week in order to assess the elimination of the main ABX464 metabolite and to assess the viral load. Follow-up visits were terminated when the virus load was within 0.5 log of the baseline value or after 3 follow-up visits, whichever came first. Prior to the statistical analyses, AEs were coded using the Medical Dictionary for Regulatory Activities (MedDRA dictionary; last available version) in order to be tabulated by system organ class (SOC) and preferred term (PT). The AEs were analyzed according to the treatment emergence phase from the first study drug administration on day 1 up to 48 h after the last study drug administration. The number and percentage of subjects with at least one TEAE were tabulated by SOC and PT for each group and dose. The number of occurrences of TEAEs was also analyzed in the same way by SOC and PT for each group and dose, by grade of severity for each group and dose, and by level of causality to the study drug for each group and dose.
Plasma samples were analyzed for ABX464 and ABX464-NGlc using validated bioanalytical methods by Atlanbio (Saint Nazaire, France) according to good laboratory practices. Pharmacokinetic parameters were calculated by noncompartmental analysis (NCA), using Phoenix WinNonlin software (Pharsight Corporation) running on a personal computer. On day 1, the following PK parameters were generated: Cmax, the time to Cmax (Tmax), lag time (tlag), elimination rate constant (kel), area under the concentration-time curve (AUC) from time zero to time t (AUC0–t), AUC from time zero to infinity (AUC0–∞), apparent clearance (CL/F), and apparent volume of distribution (V/F). On the other days of PK assessment, only Cmax, Tmax, tlag, kel, and AUC0–t were generated. The secondary analysis concerned pharmacodynamic (PD) activity, as expressed by CD4 and CD8 levels and viral load across time. The HIV viral load was analyzed in the prequalified individual local study center laboratories. CD4 and CD8 cell counts were also determined in the local study center laboratories. With respect to the viral load, changes in the log-transformed viral load values between 24 h postdose and predose were calculated on each day, and a comparison between each dose level and pooled placebo data was made. Moreover, the rate of success (defined as a decrease in the viral load value of at least 0.5 log) was evaluated for each treatment (including placebo) and compared between treatments.
No formal sample size determination was done. The aim of the study was to obtain reliable and consistent data and to expose a limited number of subjects to ABX464. To achieve this aim, six subjects per group received ABX464. A mixed model analysis of covariance of the changes in the viral load compared to that at the baseline was conducted on log-transformed values. Baseline parameters and age were covariates, treatment groups were fixed effects, and subjects were random effects.

FC(F)(F)Oc1ccc(Nc2ccc3cccc(Cl)c3n2)cc1 [ABX464]
Subjects demonstrating an antiviral response (75 mg once a day): 16% | Subjects demonstrating an antiviral response (100 mg once a day): 33% | Subjects demonstrating an antiviral response (150 mg once a day): 66% | Mixed model analysis, RNA viral load Day 2 to Day 14, Treatment Group Estimate (ABX464 150 mg once a day vs. Placebo): -0.1559 | Measurements demonstrating a 0.5 log10 decrease over the treatment period (ABX464-treated subjects): 49 measurements | Change in log10 no. of RNA copies/ml from that at the baseline (Group 1 (25 mg every 3 days, fasted), subject 102, day 4): −0.99 log10 no. of RNA copies/ml | Change in log10 no. of RNA copies/ml from that at the baseline (Group 1 (25 mg every 3 days, fasted), subject 102, day 5): −1.47 log10 no. of RNA copies/ml | Change in log10 no. of RNA copies/ml from that at the baseline (Group 1 (25 mg every 3 days, fasted), subject 102, day 7): −1.36 log10 no. of RNA copies/ml | Change in log10 no. of RNA copies/ml from that at the baseline (Group 1 (25 mg every 3 days, fasted), subject 102, day 8): −1.57 log10 no. of RNA copies/ml | Change in log10 no. of RNA copies/ml from that at the baseline (Group 1 (25 mg every 3 days, fasted), subject 102, day 10): −1.43 log10 no. of RNA copies/ml | Change in log10 no. of RNA copies/ml from that at the baseline (Group 1 (25 mg every 3 days, fasted), subject 102, day 11): −1.61 log10 no. of RNA copies/ml | Change in log10 no. of RNA copies/ml from that at the baseline (Group 1 (25 mg every 3 days, fasted), subject 102, day 13): −1.4 log10 no. of RNA copies/ml | Change in log10 no. of RNA copies/ml from that at the baseline (Group 1 (25 mg every 3 days, fasted), subject 102, day 14): −1.51 log10 no. of RNA copies/ml | Change in log10 no. of RNA copies/ml from that at the baseline (Group 1 (25 mg every 3 days, fasted), subject 105, day 14): −0.5 log10 no. of RNA copies/ml | Change in log10 no. of RNA copies/ml from that at the baseline (Group 1 (25 mg every 3 days, fasted), subject 105, day 16): −0.52 log10 no. of RNA copies/ml | Change in log10 no. of RNA copies/ml from that at the baseline (Group 1 (25 mg every 3 days, fasted), subject 105, day 17): −0.65 log10 no. of RNA copies/ml | Change in log10 no. of RNA copies/ml from that at the baseline (Group 1 (25 mg every 3 days, fasted), subject 106, day 5): −0.72 log10 no. of RNA copies/ml | Change in log10 no. of RNA copies/ml from that at the baseline (Group 1 (25 mg every 3 days, fasted), subject 106, day 11): −0.56 log10 no. of RNA copies/ml | Change in log10 no. of RNA copies/ml from that at the baseline (Group 1 (25 mg every 3 days, fasted), subject 106, day 13): −0.62 log10 no. of RNA copies/ml | Change in log10 no. of RNA copies/ml from that at the baseline (Group 1 (25 mg every 3 days, fasted), subject 106, day 16): −0.74 log10 no. of RNA copies/ml | Change in log10 no. of RNA copies/ml from that at the baseline (Group 1 (25 mg every 3 days, fasted), subject 106, day 17): −0.51 log10 no. of RNA copies/ml | Change in log10 no. of RNA copies/ml from that at the baseline (Group 1 (25 mg every 3 days, fasted), subject 106, day 19): −0.61 log10 no. of RNA copies/ml | Change in log10 no. of RNA copies/ml from that at the baseline (Group 2 (25 mg q.d., fasted), subject 201, day 14): −0.54 log10 no. of RNA copies/ml | Change in log10 no. of RNA copies/ml from that at the baseline (Group 4 (50 mg t.i.d., fed), subject 2007, day 10): −0.62 log10 no. of RNA copies/ml | Change in log10 no. of RNA copies/ml from that at the baseline (Group 4 (50 mg t.i.d., fed), subject 2009, day 10): −0.72 log10 no. of RNA copies/ml | Change in log10 no. of RNA copies/ml from that at the baseline (Group 4 (50 mg t.i.d., fed), subject 2009, day 14): −1.23 log10 no. of RNA copies/ml | Change in log10 no. of RNA copies/ml from that at the baseline (Group 4 (50 mg t.i.d., fed), subject 2009, day 18): −1.39 log10 no. of RNA copies/ml | Change in log10 no. of RNA copies/ml from that at the baseline (Group 5 (75 mg q.d., fed), subject 605, day 2): −0.71 log10 no. of RNA copies/ml | Change in log10 no. of RNA copies/ml from that at the baseline (Group 5 (75 mg q.d., fed), subject 605, day 4): −0.77 log10 no. of RNA copies/ml | Change in log10 no. of RNA copies/ml from that at the baseline (Group 5 (75 mg q.d., fed), subject 605, day 5): −0.76 log10 no. of RNA copies/ml | Change in log10 no. of RNA copies/ml from that at the baseline (Group 5 (75 mg q.d., fed), subject 605, day 7): −0.89 log10 no. of RNA copies/ml | Change in log10 no. of RNA copies/ml from that at the baseline (Group 5 (75 mg q.d., fed), subject 605, day 8): −0.83 log10 no. of RNA copies/ml | Change in log10 no. of RNA copies/ml from that at the baseline (Group 5 (75 mg q.d., fed), subject 605, day 10): −1.06 log10 no. of RNA copies/ml | Change in log10 no. of RNA copies/ml from that at the baseline (Group 5 (75 mg q.d., fed), subject 605, day 11): −1.05 log10 no. of RNA copies/ml | Change in log10 no. of RNA copies/ml from that at the baseline (Group 6 (100 mg q.d., fasted), subject 804, day 11): −0.52 log10 no. of RNA copies/ml | Change in log10 no. of RNA copies/ml from that at the baseline (Group 6 (100 mg q.d., fasted), subject 804, day 15): −0.59 log10 no. of RNA copies/ml | Change in log10 no. of RNA copies/ml from that at the baseline (Group 6 (100 mg q.d., fasted), subject 807, day 11): −0.51 log10 no. of RNA copies/ml | Change in log10 no. of RNA copies/ml from that at the baseline (Group 6 (100 mg q.d., fasted), subject 807, day 18): −1.44 log10 no. of RNA copies/ml | Change in log10 no. of RNA copies/ml from that at the baseline (Group 7 (150 mg every 3 days, fed), subject 908, day 16): −0.72 log10 no. of RNA copies/ml | Change in log10 no. of RNA copies/ml from that at the baseline (Group 7 (150 mg every 3 days, fed), subject 908, day 19): −0.53 log10 no. of RNA copies/ml
